Tests used:
[1] = test system: drug-resistant breast tumors; assay: 3G4 and cisplatin against drug-resistant breast tumors; format: in vivo, mouse; details: treated after day 20
Text: Mice were inoculated with drug-resistant breast tumors and treated after day 20.

ABAE cells = assay: Induction of PS exposure, 125I-annexin V binding; format: cell-based, bovine
Protocol: (§1) All reagents were diluted in medium containing 10% serum and incubated with the cells at 37° C. for 24 h.
(§2) To study the effect of hypoxia, cells were seeded on 24 well plates and were incubated in a humidified normoxic atmosphere (21% O2, 5% CO2) for 48 h before being transferred to a humidified hypoxic atmosphere (1% O2, 5% CO2, 94% N2) in a sealed chamber (Billups Rothenberg Inc., Del Mar, Ca). Cells were incubated in a hypoxic chamber for 24 h at 37° C. and were then returned to a normoxic environment for 4 h at 37° C. The cells were compared to a parallel culture from an identical passage, seeded on the same day and maintained entirely under normoxic conditions. In some studies, IL-1α (10 ng/ml) and TNFα (20 ng/ml) were added to the medium before transfer to the hypoxic chamber.
(§3) After treatment with the reagents described above, treated and control cells were incubated with 7.1 pmoles of ^125I-labeled annexin V (200 μl/well) in the binding buffer. After 2 h incubation at room temperature, cells were washed extensively and dissolved in 0.5 M of NaOH. The entire volume of 0.5 ml was transferred to plastic tubes and counted in a gamma counter. Non-specific binding was determined in the presence of 5 mM EDTA and was subtracted from experimental values. The results were expressed as net pmoles of cell-bound annexin V, normalized per 1×10^6 cells.
(§4) Maximal binding of annexin V was determined on cells simultaneously treated with actinomycin D and TNFα (50 ng/ml of each component). As has been previously reported, these agents cause apoptosis and PS exposure in 90-100% of endothelial cells (Lucas et al., 1998). Basal binding of ^125I-annexin V to untreated cells was determined in the presence of medium with 10% serum. The amount of ^125I-annexin V that bound to the untreated cultures was subtracted from that in the treated cultures. Exposure of PS was calculated according to the following formula: cell-bound annexin V (pmoles) under experimental conditions divided by maximal annexin V binding (pmoles), multiplied by 100. Each study was performed in duplicate and was performed at least three times. Mean values were calculated. The SE of the mean values from three separate experiments was less than 5%.

bEnd.3 cells = assay: Induction of PS exposure, 125I-annexin V binding; format: cell-based, mouse
Protocol: as §1, §2, §3, §4

[2] = Binding of ch3G4 and 2aG4 to phospholipid-coated ELISA plates; details: vs 3G4
[3] = Phospholipid specificity ELISA; format: binding
Protocol: The specificity of the antibodies was determined by ELISA using plates coated with the following phospholipids: PS, phosphatidylserine; PE, phosphatidylethanolamine; PI, phosphatidylinositol; PA, phosphatidic acid; PG, phosphatidylglycerol; PC, phosphatidylcholine; CL, cardiolipin; and SM, sphingomyelin.

[4] = Serum dependence of binding to PS
Protocol: The serum dependence or independence of the antibodies is also set forth in Table 2 (see also, Example XXX).
The 1B9, 2G7 and 7C5 antibodies behave essentially the same. These antibodies recognize only PS and require serum or serum proteins for binding to PS. The binding of 1B9, 2G7 and 7C5 to various phospholipids in the present example was assayed only in the presence of 10% bovine serum, whereas binding of the other antibodies was tested either in the absence or in the presence of serum.

WiDr (colon carcinoma) = assay: WiDr colon carcinoma model; format: in vivo, mouse; details: 100 μg 3×/week from day 5; preliminary study
Protocol: Treatment was started on day 5, when the tumors were small (10 mice per group). 100 μg of each antibody was injected 3×/week and tumor growth monitored.

[5] = test system: ABAE cells with exposed PS; assay: Live-cell binding assay on LPC-treated endothelial cells; format: cell-based, bovine
Protocol: Adult bovine aortic endothelial (ABAE) cells were maintained in DMEM supplemented with 10% FBS and 2 mM L-glutamine. ABAE cells were removed from subconfluent cultures by brief exposure to 0.25% trypsin/0.02% EDTA, and 8-well chamber slides were seeded with 2×10^4 cells/well. Following overnight culture, cells were washed gently with PBS and treated with 200 μM lysophosphatidylcholine (LPC) to induce PS exposure.
PS exposure was determined by immunofluorescence staining. Cells were washed thoroughly in PBS, fixed in 4% paraformaldehyde (w/v), and incubated with a biotin-conjugated anti-mouse secondary antibody. Next, cells were incubated with FITC-conjugated streptavidin (Jackson Immunoresearch) to detect antibody binding. Cells were then permeablized with 0.1% Triton-X100 in PBS and counterstained with Texas Red-conjugated phalloidin (Molecular Probes, Eugene, Oreg.), and 4′, 6-diamidino-2-phenylindole (DAPI; Molecular Probes). Images were captured using a Coolsnap digital camera (Photometrics, Tucson, Ariz.) mounted on a Nikon microscope and processed with MetaVue software (Universal Imaging Corporation, Downingtown, Pa.).
The area of antibody binding was determined using MetaVue image analysis software, which is able to quantify the number of illuminated pixels in an image. Images of FITC fluorescence were used to quantify antibody binding. Corresponding images of DAPI fluorescence were used to normalize the FITC images for the number of cells present in the field. A small FITC/DAPI ratio indicates a small antibody binding area, whereas a large FITC/DAPI ratio indicates a large binding area. The FITC/DAPI ratios were used to determine increases or decreases in antibody binding area relative to a basal amount of antibody binding under the selected conditions. Five images at 200× magnification were used for each analysis. Data are presented as average relative FITC/DAPI ratios with error bars representing the standard deviation.
Cells were then washed, fixed, and stained with fluorescent markers to visualize binding of antibody to the cell surface.

[6] = Hypoxia (1% O2) + TNFα 20 ng/ml
[7] = Hypoxia (1% O2) + IL-1α 10 ng/ml

## N.N.[Cl][Pt][Cl] [cisplatin, reference compound]
[1]
  anti-tumor response: tumor growth was slowed

## TGF β1: growth factor tested on endothelial cells
ABAE cells; 20 ng/ml, 24 h
  125I-Annexin V (% of Max binding): 0 % of Max binding
bEnd.3 cells; 20 ng/ml, 24 h
  125I-Annexin V (% of Max binding): 0 % of Max binding

## GM-CSF: cytokine tested on endothelial cells
ABAE cells; ABAE and bEnd.3 cells
  binding of 125I-annexin V above the basal level for untreated cells: did not increase binding

## VEGF
ABAE cells; 20 ng/ml, 24 h
  125I-Annexin V (% of Max binding): 0 % of Max binding
bEnd.3 cells; 20 ng/ml, 24 h
  125I-Annexin V (% of Max binding): 0 % of Max binding

## TNFα
ABAE cells; 20 ng/ml, 24 h
  125I-Annexin V (% of Max binding): 7.4 % of Max binding
ABAE cells; [6]
  125I-Annexin V (% of Max binding): 33.0 % of Max binding
bEnd.3 cells; 20 ng/ml, 24 h
  125I-Annexin V (% of Max binding): 13.7 % of Max binding
bEnd.3 cells; [6]
  125I-Annexin V (% of Max binding): 36.0 % of Max binding

## Thrombin
ABAE cells; 50 nM, 24 h
  125I-Annexin V (% of Max binding): 8.8 % of Max binding
bEnd.3 cells; 50 nM, 24 h
  125I-Annexin V (% of Max binding): 17.4 % of Max binding

## IL-8: interleukin-8
ABAE cells; 20 ng/ml, 24 h
  125I-Annexin V (% of Max binding): 0 % of Max binding
bEnd.3 cells; 20 ng/ml, 24 h
  125I-Annexin V (% of Max binding): 0 % of Max binding

## FGF-2: human fibroblast growth factor-2
ABAE cells; 20 ng/ml, 24 h
  125I-Annexin V (% of Max binding): 0 % of Max binding
bEnd.3 cells; 20 ng/ml, 24 h
  125I-Annexin V (% of Max binding): 0 % of Max binding

## IL-10: interleukin-10
ABAE cells; 20 ng/ml, 24 h
  125I-Annexin V (% of Max binding): 0 % of Max binding
bEnd.3 cells; 20 ng/ml, 24 h
  125I-Annexin V (% of Max binding): 0 % of Max binding

## IL-6: interleukin-6
ABAE cells; 20 ng/ml, 24 h
  125I-Annexin V (% of Max binding): 0 % of Max binding
bEnd.3 cells; 20 ng/ml, 24 h
  125I-Annexin V (% of Max binding): 0 % of Max binding

## Scatter factor: Recombinant hepatocyte growth factor (HGF or scatter factor)
ABAE cells; 40 ng/ml, 24 h
  125I-Annexin V (% of Max binding): 0 % of Max binding
bEnd.3 cells; 40 ng/ml, 24 h
  125I-Annexin V (% of Max binding): 0 % of Max binding

B1: 2aG4: Recombinant mouse IgG2a isotype of 3G4; SEQ ID NO:10 and 11 (antibody, listed as Mus musculus)
heavy: MGWTWIFILILSVTTGVHSEVQLQQSGPELEKPGASVKLSCKASGYSFTGYNMNWVKQSHGKSLEWIGHIDPYYGDTSYNQKFRGKATLTVDKSSSTAYMQLKSLTSEDSAVYYCVKGGYYGHWYFDVWGAGTTVTVSSAKTTAPSVYPLAPVCGDTTGSSVTLGCLVKGYFPEPVTLTWNSGSLSSGVHTFPAVLQSDLYTLSSSVTVTSSTWPSQSITCNVAHPASSTKVDKKEPRGPTIKPCPPCKCPAPNLLGGPSVFIFPPKIKDVLMISLSPIVTCVVVDVSEDDPDVQISWFVNNVEVHTAQTQTHREDYNSTLRVVSALPIQHQDWMSGKEFKCKVNNKDLPAPIERTISKPKGSVRAPQVYVLPPPEEEMTKKQVTLTCMVTDFMPEDIYVEWTNNGKTELNYKNTEPVLDSDGSYFMYSKLRVEKKNWVERNSYSCSVVHEGLHNHHTTKSFSRTPGK
light: MDMRAPAQILGFLLLLFPGTRCDIQMTQSPSSLSASLGERVSLTCRASQDIGSSLNWLQQGPDGTIKRLIYATSSLDSGVPKRFSGSRSGSDYSLTISSLESEDFVDYYCLQYVSSPPTFGAGTKLELKRADAAPTVSIFPPSSEQLTSGGASVVCFLNNFYPKDINVKWKIDGSERQNGVLNSWTDQDSKDSTYSMSSTLTLTKDEYERHNSYTCEATHKTSTSPIVKSFNRNEC
[2]
  affinity and specificity in PS-ELISA: essentially the same as for 3G4
[3]
  Relative Strength of Reactivity on ELISA: PS = PA = PI = PG = CL >> PE
[4]
  Serum cofactor?: Yes
WiDr (colon carcinoma)
  tumor growth: slowed tumor growth to essentially the same degree

B2: nicked hβ2GPI: hβ2GPI cleaved by plasmin at Lys317/Thr318; non-lipid binding form (protein)
chain: GRTCPKPDDLPFSTVVPLKTFYEPGEEITYSCKPGYVSRGGMRKFICPLTGLWPINTLKCTPRVCPFAGILENGAVRYTTFEYPNTISFSCNTGFYLNGADSAKCTEEGKWSPELPVCAPIICPPPSIPTFATLRVYKPSAGNNSLYRDTAVFECLPQHAMFGNDTITCTTHGNWTKLPECREVKCPFPSRPDNGFVNYPAKPTLYYKDKATFGCHDGYSLDGPEEIECTKLGNWSAMPSCKASCKLPVKKATVVYQGERVKIQEKFKNGMLHGDKVSFFCKNKEKKCSYTEDAQCIDGTIEVPKCFKEHSSLAFWKTDASDVKPC
[5]; 2 μg/ml, LPC
  mediation of ch3G4 binding to ABAE cells with exposed PS: not able to mediate binding

B3: 3G4 Fab′: Monovalent fragment of 3G4 (antibody)
VH: EVQLQQSGPELEKPGASVKLSCKASGYSFTGYNMNWVKQSHGKSLEWIGHIDPYYGDTSYNQKFRGKATLTVDKSSSTAYMQLKSLTSEDSAVYYCVKGGYYGHWYFDVWGAGTTVTVSSATTTAPSVYPLVP
light: DIQMTQSPSSLSASLGERVSLTCRASQDIGSSLNWLQQGPDGTIKRLIYATSSLDSGVPKRFSGSRSGSDYSLTISSLESEDFVDYYCLQYVSSPPTFGAGTKLELKRADAAPTVSIFPPSSEQLTSGGASVVCFLNNFYPKDINVKWKIDGSERQNGVLNSWTDQDSKDSTYSMSSTLTLTKDEYERHNSYTCEATHKTSTSPIVKSFNRNEC
[5]; 20 nM ch3G4, 40 nM hβ2GPI
  inhibition of ch3G4/β2GPI binding: inhibited ch3G4/β2GPI binding to LPC-treated ABAE cells in a concentration-dependent manner
[5]; 20 nM, DMEM+10% FBS
  binding to LPC-treated ABAE cells: negligible
[5]; 2 μM, 40 nM hβ2GPI
  binding to ABAE cells: No binding

B4: IL-1α: Recombinant murine interleukin-1 alpha (protein, UniProt P01582 115-270, looked up)
Interleukin-1 alpha: SAPYTYQSDLRYKLMKLVRQKFVMNDSLNQTIYQDVDKHYLSTTWLNDLQQEVKFDMYAYSSGGDDSKYPVTLKISDSQLFVSAQGEDQPVLLKELPETPKLITGSETDLIFFWKSINSKNYFTSAAYPELFIATKEQSRVHLARGLPSMTDFQIS
ABAE cells; 10 ng/ml, 24 h
  125I-Annexin V (% of Max binding): 6.4 % of Max binding
ABAE cells; [7]
  125I-Annexin V (% of Max binding): 26.0 % of Max binding
bEnd.3 cells; 10 ng/ml, 24 h
  125I-Annexin V (% of Max binding): 7.5 % of Max binding
bEnd.3 cells; [7]
  125I-Annexin V (% of Max binding): 31.0 % of Max binding

B5: IL-1β: Recombinant murine interleukin-1 beta (protein, UniProt P10749 118-269, looked up)
Interleukin-1 beta: VPIRQLHYRLRDEQQKSLVLSDPYELKALHLNGQNINQQVIFSMSFVQGEPSNDKIPVALGLKGKNLYLSCVMKDGTPTLQLESVDPKQYPKKKMEKRFVFNKIEVKSKVEFESAEFPNWYISTSQAEHKPVFLGNNSGQDIIDFTMESVSS
ABAE cells; 10 ng/ml, 24 h
  125I-Annexin V (% of Max binding): 5.8 % of Max binding
bEnd.3 cells; 10 ng/ml, 24 h
  125I-Annexin V (% of Max binding): 5.5 % of Max binding
